The text below walks through data of ChEMBL document CHEMBL1141238, “Cyclohexyl-linked tricyclic isoxazoles are potent and selective modulators of the multidrug resistance protein (MRP1)” (Bioorg Med Chem Lett, 2005).

For test [1], the target named is T1, Multidrug resistance-associated protein 1 (Homo sapiens, UniProt P33527). Description: Inhibitory activity against MRP1-mediated LTC4 uptake into membrane vesicles from HeLa-T5 cells expressing MRP1. In kind it is functional, cell-based.
The target in test [2] is T1, Multidrug resistance-associated protein 1. Description: Inhibitory activity against MRP1 in HeLa-T5 cells. The class given is functional, cell-based.

T1 sequence (P33527 whole entry): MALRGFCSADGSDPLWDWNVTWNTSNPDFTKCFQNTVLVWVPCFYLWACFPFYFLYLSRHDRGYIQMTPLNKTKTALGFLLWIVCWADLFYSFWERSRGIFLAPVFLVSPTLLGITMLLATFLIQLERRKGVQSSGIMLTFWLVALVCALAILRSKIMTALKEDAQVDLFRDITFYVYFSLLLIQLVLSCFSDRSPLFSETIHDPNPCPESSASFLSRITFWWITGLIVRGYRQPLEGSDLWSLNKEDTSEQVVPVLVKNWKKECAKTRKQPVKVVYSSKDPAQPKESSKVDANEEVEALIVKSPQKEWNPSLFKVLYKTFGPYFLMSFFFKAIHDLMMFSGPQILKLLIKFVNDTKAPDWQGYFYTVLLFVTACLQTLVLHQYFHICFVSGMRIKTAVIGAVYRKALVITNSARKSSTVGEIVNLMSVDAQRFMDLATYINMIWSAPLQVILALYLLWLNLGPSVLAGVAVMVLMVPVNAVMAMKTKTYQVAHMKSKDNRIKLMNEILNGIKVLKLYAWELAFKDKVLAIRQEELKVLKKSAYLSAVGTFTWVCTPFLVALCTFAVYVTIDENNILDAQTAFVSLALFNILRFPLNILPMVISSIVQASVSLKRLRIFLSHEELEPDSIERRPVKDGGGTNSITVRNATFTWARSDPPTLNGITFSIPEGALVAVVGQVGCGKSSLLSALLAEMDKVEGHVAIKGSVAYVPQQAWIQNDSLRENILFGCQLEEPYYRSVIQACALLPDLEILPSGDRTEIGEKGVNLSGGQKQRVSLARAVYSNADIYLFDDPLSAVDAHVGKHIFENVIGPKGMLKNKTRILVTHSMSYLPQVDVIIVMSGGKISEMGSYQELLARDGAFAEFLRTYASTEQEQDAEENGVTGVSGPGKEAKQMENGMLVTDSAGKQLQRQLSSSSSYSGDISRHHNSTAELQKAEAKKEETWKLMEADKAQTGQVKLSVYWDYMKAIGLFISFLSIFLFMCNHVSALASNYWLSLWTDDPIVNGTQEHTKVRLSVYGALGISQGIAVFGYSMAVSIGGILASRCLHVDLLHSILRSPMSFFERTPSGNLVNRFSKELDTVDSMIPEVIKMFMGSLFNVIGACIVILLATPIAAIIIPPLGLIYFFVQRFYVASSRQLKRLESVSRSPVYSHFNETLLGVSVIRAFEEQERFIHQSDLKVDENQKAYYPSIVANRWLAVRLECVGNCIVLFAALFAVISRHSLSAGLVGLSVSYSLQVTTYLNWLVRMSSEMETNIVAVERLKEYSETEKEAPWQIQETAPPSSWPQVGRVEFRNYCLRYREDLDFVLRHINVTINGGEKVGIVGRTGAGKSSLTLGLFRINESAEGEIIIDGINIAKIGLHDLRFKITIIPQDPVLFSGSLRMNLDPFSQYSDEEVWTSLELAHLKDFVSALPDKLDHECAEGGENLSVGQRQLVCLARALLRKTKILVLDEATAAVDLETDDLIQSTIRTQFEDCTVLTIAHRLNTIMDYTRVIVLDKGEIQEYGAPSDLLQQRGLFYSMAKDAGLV

Usually IC50 stands for the concentration at which inhibition is half-maximal. A low value points to higher potency. As a reminder, the EC50 is the concentration needed to bring the measured effect to its halfway point. For `COc1cc(C(=O)NC[C@@H]2CCC[C@H](n3c(=O)c4c(C)onc4c4c(Cl)cccc43)C2)cc(OC)c1OC` (racemic), the IC50 in test [1] amounted to 270 nM. Also, the EC50 in test [2] amounted to 250 nM. Take `Cc1onc2c1c(=O)n([C@H]1CCC[C@H](CNC(=O)c3ccccc3)C1)c1cccc(Cl)c21` (racemic): in test [1], the IC50 was 1010 nM. Also, in test [2], the EC50 was 640 nM. As to `Cc1onc2c1c(=O)n([C@H]1CCC[C@@H](CNC(=O)c3ccccc3)C1)c1cccc(Cl)c21` (racemic), the IC50 in test [1] came to 38 nM. In test [2], this compound returned an EC50 of 180 nM. Compound `COc1cc(C(=O)NC[C@H]2CCC[C@H](n3c(=O)c4c(C)onc4c4c(Cl)cccc43)C2)cc(OC)c1OC` (racemic) yielded an EC50 in test [2] of 420 nM. This lies in the sub-micromolar range.
